ChEMBL document CHEMBL5465560, “Selectivity Literature for EUbOPEN Chemogenomic Library” (2024)

Columns and labels:
[1] = biological target: Calcium/calmodulin-dependent protein kinase kinase 2 (Homo sapiens) (UniProt Q96RR4); conditions: at 10 µM
[2] = biological target: Progesterone receptor (Homo sapiens) (UniProt P06401); assay: Selectivity interaction (Eurofins CEREP Diversity Profile (receptors and ion channels)) EUB0000279b PGR; conditions: at 10 µM
[3] = biological target: Tyrosine-protein kinase Lck (Homo sapiens, UniProt P06239); assay: Selectivity interaction (Panel of kinases, GPCRs, ion channels and transporters (enzymatic assay)) EUB0000223bCl LCK
Sequence of Tyrosine-protein kinase Lck (P06239 2-509 limits assumed): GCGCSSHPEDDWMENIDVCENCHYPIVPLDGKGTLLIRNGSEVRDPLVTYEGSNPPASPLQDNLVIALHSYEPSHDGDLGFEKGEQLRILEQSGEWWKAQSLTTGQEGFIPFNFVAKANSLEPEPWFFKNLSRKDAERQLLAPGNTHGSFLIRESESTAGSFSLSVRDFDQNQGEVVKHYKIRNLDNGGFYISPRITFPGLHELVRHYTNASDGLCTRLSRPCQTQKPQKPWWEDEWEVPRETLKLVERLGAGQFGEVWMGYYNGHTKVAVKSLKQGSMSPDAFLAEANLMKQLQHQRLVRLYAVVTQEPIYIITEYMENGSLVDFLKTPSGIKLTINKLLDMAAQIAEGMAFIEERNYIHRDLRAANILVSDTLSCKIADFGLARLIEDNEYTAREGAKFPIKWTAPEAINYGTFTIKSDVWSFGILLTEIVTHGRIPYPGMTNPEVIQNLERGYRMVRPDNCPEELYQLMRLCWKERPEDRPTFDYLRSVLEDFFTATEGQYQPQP

[4] = biological target: T1, Cyclin-G-associated kinase (Homo sapiens) (UniProt O14976); assay: Selectivity interaction (KinomeScan (DiscoverX)) EUB0000607a GAK; conditions: at 10 µM
T1 sequence (whole entry): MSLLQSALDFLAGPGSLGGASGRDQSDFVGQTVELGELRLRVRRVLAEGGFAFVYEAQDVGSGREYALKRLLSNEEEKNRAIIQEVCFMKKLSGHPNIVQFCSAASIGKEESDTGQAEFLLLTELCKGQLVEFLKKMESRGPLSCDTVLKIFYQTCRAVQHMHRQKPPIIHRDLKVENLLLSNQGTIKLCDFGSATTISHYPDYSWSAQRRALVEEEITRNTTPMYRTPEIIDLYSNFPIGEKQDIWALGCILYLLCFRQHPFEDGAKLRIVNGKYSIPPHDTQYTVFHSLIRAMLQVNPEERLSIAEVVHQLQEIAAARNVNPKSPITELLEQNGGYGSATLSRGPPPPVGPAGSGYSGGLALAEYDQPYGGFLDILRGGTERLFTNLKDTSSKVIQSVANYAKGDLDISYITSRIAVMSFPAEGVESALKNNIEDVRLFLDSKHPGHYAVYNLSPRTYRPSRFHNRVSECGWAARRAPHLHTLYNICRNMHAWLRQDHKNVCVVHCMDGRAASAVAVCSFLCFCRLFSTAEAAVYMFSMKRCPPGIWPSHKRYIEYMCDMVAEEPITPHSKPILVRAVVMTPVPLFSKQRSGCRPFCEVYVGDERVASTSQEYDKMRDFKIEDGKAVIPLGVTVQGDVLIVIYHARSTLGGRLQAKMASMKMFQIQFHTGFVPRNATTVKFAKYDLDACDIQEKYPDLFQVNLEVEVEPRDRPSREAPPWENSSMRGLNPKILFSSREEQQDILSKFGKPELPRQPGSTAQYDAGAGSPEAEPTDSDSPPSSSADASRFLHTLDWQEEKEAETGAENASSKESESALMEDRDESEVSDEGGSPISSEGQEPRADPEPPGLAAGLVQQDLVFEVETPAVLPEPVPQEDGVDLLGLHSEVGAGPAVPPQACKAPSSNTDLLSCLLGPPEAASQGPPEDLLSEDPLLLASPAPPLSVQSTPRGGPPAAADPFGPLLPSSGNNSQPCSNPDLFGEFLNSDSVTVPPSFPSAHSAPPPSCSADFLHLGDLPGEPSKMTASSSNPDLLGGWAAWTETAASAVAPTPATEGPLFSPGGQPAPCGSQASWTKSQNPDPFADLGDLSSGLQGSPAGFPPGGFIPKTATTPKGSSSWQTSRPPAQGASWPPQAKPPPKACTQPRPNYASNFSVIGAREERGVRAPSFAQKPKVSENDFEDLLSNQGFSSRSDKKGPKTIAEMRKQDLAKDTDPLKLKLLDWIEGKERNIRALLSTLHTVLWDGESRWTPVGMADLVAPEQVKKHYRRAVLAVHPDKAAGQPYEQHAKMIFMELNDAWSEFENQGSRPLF

[5] = tested on: Mast/stem cell growth factor receptor Kit (Homo sapiens), P10721 [V559D]; conditions: at 10 µM
Sequence of Mast/stem cell growth factor receptor Kit (Homo sapiens), P10721 [V559D] (P10721 whole entry V559D): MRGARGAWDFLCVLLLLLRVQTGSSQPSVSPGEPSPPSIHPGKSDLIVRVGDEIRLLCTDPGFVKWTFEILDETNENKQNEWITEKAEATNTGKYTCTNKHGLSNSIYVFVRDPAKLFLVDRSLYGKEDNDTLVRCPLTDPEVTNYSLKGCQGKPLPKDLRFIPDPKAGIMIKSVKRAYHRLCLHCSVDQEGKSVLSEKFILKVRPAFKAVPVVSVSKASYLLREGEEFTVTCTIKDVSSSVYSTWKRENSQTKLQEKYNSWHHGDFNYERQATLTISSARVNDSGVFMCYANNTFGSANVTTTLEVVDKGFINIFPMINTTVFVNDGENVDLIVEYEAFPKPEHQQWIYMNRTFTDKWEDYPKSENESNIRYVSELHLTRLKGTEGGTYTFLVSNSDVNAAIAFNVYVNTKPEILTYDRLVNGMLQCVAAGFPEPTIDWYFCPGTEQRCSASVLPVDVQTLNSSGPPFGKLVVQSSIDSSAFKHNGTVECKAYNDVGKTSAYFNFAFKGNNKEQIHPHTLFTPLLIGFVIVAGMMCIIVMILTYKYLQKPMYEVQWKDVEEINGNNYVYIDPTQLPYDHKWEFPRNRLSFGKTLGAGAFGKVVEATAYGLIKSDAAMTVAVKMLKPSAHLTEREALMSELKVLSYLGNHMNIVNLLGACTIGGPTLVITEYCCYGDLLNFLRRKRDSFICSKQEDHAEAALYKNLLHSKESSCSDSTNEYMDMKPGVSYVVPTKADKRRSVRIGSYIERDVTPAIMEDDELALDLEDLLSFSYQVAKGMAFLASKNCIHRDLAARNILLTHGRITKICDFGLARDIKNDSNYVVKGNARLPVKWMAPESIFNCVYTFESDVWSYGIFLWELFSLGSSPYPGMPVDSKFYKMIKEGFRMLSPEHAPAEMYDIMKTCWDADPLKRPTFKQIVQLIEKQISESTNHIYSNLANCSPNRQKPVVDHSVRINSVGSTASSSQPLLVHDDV

[6] = biological target: T2, Serine/threonine-protein kinase D1 (Homo sapiens) (UniProt Q15139); conditions: at 10 µM
T2 sequence (whole entry): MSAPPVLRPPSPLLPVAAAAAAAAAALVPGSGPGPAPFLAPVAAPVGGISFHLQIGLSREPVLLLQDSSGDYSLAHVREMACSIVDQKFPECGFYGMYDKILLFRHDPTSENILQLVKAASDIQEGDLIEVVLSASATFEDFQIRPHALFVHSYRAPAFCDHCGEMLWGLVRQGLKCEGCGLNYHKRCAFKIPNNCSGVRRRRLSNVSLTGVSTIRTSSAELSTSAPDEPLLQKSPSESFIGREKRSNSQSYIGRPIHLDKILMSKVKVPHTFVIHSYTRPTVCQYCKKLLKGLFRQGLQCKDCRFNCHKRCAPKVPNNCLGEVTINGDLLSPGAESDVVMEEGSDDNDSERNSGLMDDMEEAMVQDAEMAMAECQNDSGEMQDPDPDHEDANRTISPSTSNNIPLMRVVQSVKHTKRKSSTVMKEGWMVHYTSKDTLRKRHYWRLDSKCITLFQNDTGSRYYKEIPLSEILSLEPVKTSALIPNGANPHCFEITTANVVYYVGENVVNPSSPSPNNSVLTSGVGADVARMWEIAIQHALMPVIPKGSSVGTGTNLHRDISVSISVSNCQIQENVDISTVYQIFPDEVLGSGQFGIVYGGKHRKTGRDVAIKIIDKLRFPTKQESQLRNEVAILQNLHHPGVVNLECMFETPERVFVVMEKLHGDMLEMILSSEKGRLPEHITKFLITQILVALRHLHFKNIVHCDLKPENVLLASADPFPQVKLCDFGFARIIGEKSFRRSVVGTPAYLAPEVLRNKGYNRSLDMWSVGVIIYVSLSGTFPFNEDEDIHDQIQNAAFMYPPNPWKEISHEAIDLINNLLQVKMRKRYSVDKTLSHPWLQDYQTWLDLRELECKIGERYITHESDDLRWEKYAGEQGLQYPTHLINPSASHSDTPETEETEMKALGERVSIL

Sequence of Calcium/calmodulin-dependent protein kinase kinase 2 (Homo sapiens) (Q96RR4 2-588 limits assumed): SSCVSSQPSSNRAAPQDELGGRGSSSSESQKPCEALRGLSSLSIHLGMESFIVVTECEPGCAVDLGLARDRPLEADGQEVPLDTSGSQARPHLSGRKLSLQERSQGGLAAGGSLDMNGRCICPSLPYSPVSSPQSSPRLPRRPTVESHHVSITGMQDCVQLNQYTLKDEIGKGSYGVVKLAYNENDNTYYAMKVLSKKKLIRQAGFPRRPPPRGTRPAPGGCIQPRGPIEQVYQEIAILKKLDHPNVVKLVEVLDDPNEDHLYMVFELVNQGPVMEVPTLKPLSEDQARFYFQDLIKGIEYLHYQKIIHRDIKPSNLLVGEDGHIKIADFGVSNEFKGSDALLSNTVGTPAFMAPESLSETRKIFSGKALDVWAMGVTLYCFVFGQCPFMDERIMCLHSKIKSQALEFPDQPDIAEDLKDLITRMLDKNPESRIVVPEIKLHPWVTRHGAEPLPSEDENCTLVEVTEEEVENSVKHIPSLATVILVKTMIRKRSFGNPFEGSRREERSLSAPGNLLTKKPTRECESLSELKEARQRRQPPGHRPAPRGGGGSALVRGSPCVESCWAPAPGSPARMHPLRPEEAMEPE
Sequence of Progesterone receptor (Homo sapiens) (P06401 whole entry): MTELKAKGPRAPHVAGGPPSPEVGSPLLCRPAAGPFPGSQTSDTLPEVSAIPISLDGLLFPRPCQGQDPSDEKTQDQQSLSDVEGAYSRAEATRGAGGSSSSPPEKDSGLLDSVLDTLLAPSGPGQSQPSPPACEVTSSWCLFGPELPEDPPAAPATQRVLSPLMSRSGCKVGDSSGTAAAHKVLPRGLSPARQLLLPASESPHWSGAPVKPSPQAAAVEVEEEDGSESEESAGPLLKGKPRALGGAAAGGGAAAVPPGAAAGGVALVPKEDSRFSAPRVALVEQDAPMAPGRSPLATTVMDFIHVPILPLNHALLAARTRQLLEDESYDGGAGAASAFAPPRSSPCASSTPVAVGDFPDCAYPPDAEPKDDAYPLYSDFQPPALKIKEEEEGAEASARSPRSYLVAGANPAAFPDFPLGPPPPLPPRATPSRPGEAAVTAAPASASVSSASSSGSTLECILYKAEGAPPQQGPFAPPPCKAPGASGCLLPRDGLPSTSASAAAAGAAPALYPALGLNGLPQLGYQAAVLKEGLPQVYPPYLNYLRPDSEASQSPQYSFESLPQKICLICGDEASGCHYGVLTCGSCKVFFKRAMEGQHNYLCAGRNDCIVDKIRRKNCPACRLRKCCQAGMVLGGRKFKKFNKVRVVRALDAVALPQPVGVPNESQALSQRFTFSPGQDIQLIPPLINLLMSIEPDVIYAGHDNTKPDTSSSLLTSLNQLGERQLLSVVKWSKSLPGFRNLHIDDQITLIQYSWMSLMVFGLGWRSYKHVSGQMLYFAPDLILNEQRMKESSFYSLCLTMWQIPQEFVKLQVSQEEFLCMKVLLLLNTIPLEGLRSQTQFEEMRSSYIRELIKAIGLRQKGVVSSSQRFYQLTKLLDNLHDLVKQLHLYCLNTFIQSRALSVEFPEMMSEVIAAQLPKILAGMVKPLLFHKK

Q: With `Cc1cc([C@@H](C)Nc2ccccc2C(=O)O)c2nc(N3CCOCC3)cc(=O)n2c1` [AZD-6482] as the compound, how does the % of control [1] read?
A: The % of control was 100%.

Q: With `CC(=O)c1cc(-c2ccccc2OCC2CC2)c2ncccn12` as the compound, how does the % of control [2] read?
A: Its % of control is 81%.

Q: With `COc1cc(C(=O)N2CC[C@@H](O)[C@@H](N)C2)cc2nc(-c3cc4ccccc4n3CC3CC3)n(C)c12` as the compound, how does the pXC50 [3] read?
A: The pXC50 was < 4.5 M.

Q: For `CNC(=O)Nc1ccc(-c2nc(N3CC4CCC(C3)O4)c3cnn(C4CCC5(CC4)OCCO5)c3n2)cc1`, which % of control [4] is on record?
A: Its % of control is 75%.

Q: What does the source list for `CCN(CC)CCCCNc1ncc2cc(-c3cc(OC)cc(OC)c3)c(NC(=O)NC(C)(C)C)nc2n1`?
A: % of control [5]: 100%; % of control [6]: 100%
